{"source": "patent US10336732B2", "about": "“1-heterocyclyl isochromanyl compounds and analogs for treating CNS disorders” (Sunovion Pharmaceuticals Inc., priority 2015, dated 2019)", "data": [{"system": "mice", "test": "Neuropharmacological assay (SmartCube), behavioral signature of compound-treated mice", "format": "in vivo", "conditions": "i.p. 15 min before behavioral test, most efficacious dose(s) of 3 doses", "from_the_text": "Neurosci. […] As reported in Roberds, because psychiatric diseases generally result from disorders of cell-cell communication or circuitry, intact systems are useful in detecting improvement in disease-relevant endpoints. These endpoints are typically behavioral in nature, often requiring human observation and interpretation. To facilitate testing of multiple compounds for behavioral effects relevant to psychiatric disease, PsychoGenics, Inc. (Tarrytown, N.Y., “PGI”) developed SmartCube™, an automated system in which behaviors of compound-treated mice are captured by digital video and analyzed with computer algorithms. […] PGI Analytical Systems uses data from SmartCube™ to compare the behavioral signature of a test compound to a database of behavioral signatures obtained using a large set of diverse reference compounds. (The composition of the database as well as validation of the method is further described in Roberds). In this way, the neuropharmacological effects of a test compound can be predicted by similarity to major classes of compounds, such as antipsychotics, anxiolytics and antidepressants.\nThe SmartCube™ system produces an activity signature indicating the probability that the activity of the test compound at the administered dose matches a given class of neuropharmacological agents. (See, e.g., Roberds, FIGS. 2 and 3). The test compound is simultaneously compared against multiple classes of agents; thus, a separate probability is generated for each behavioral effect measured (e.g., anxiolytic activity, analgesic activity, etc.). In Table 4, these probabilities are reported for each behavioral effect measured as follows:\nProvided compounds were dissolved in a mixture of Pharmasolve™ (N-methyl-2-pyrrolidone), polyethylene glycol and propylene glycol, and were injected i.p. 15 min. before the behavioral test. For each compound, injections were administered at 3 different doses. For each behavioral effect measured, results for the most efficacious dose(s) are presented.", "values": [{"smiles": "Cc1ccc2c(c1)[C@H]([C@@H]1CCCN1)OCC2", "note": "[Compound I-25, (S)-2-((R)-7-methylisochroman-1-yl)pyrrolidine]", "AD: ADHD (probability that behavioral signature matches class)": "+ (LOQ ≤ + <5%)", "AG: analgesic (probability that behavioral signature matches class)": "+++ (25% ≤ +++ <50%)", "AX: anxiolytic (probability that behavioral signature matches class)": "++ (5% ≤ ++ <25%)", "CE: cognitive enhancer (probability that behavioral signature matches class)": "++ (5% ≤ ++ <25%)", "DP: anti-depressant (probability that behavioral signature matches class)": "++ (5% ≤ ++ <25%)", "HA: hallucinogen (probability that behavioral signature matches class)": "+ (LOQ ≤ + <5%)", "MS: mood stabilizer (probability that behavioral signature matches class)": "+ (LOQ ≤ + <5%)", "PS: anti-psychotic (probability that behavioral signature matches class)": "++ (5% ≤ ++ <25%)", "SD: sedative hypnotic (probability that behavioral signature matches class)": "+ (LOQ ≤ + <5%)", "UN: uncharacterized CNS activity (probability that behavioral signature matches class)": "++ (5% ≤ ++ <25%)", "XG: anxiogenic (probability that behavioral signature matches class)": "+ (LOQ ≤ + <5%)"}, {"smiles": "Cc1cccc2c1[C@H]([C@H]1CCCN1)OCCC2", "note": "[Compound I-103, (R)-2-((R)-9-methyl-1,3,4,5-tetrahydrobenzo[c]oxepin-1-yl)pyrrolidine]", "AD: ADHD (probability that behavioral signature matches class)": "+ (LOQ ≤ + <5%)", "AG: analgesic (probability that behavioral signature matches class)": "++ (5% ≤ ++ <25%)", "AX: anxiolytic (probability that behavioral signature matches class)": "++ (5% ≤ ++ <25%)", "CE: cognitive enhancer (probability that behavioral signature matches class)": "+ (LOQ ≤ + <5%)", "DP: anti-depressant (probability that behavioral signature matches class)": "++ (5% ≤ ++ <25%)", "HA: hallucinogen (probability that behavioral signature matches class)": "+ (LOQ ≤ + <5%)", "MS: mood stabilizer (probability that behavioral signature matches class)": "+ (LOQ ≤ + <5%)", "PS: anti-psychotic (probability that behavioral signature matches class)": "+ (LOQ ≤ + <5%)", "SD: sedative hypnotic (probability that behavioral signature matches class)": "++ (5% ≤ ++ <25%)", "UN: uncharacterized CNS activity (probability that behavioral signature matches class)": "+++ (25% ≤ +++ <50%)", "XG: anxiogenic (probability that behavioral signature matches class)": "+ (LOQ ≤ + <5%)"}, {"smiles": "Cc1cccc2c1[C@H]([C@H]1CCCN1)OCC2", "note": "[Compound I-23, (R)-2-((R)-8-methylisochroman-1-yl)pyrrolidine]", "AD: ADHD (probability that behavioral signature matches class)": "+ (LOQ ≤ + <5%)", "AG: analgesic (probability that behavioral signature matches class)": "+++ (25% ≤ +++ <50%)", "AX: anxiolytic (probability that behavioral signature matches class)": "++ (5% ≤ ++ <25%)", "CE: cognitive enhancer (probability that behavioral signature matches class)": "++ (5% ≤ ++ <25%)", "DP: anti-depressant (probability that behavioral signature matches class)": "++ (5% ≤ ++ <25%)", "HA: hallucinogen (probability that behavioral signature matches class)": "+ (LOQ ≤ + <5%)", "MS: mood stabilizer (probability that behavioral signature matches class)": "++ (5% ≤ ++ <25%)", "PS: anti-psychotic (probability that behavioral signature matches class)": "+++ (25% ≤ +++ <50%)", "SD: sedative hypnotic (probability that behavioral signature matches class)": "++ (5% ≤ ++ <25%)", "UN: uncharacterized CNS activity (probability that behavioral signature matches class)": "+ (LOQ ≤ + <5%)", "XG: anxiogenic (probability that behavioral signature matches class)": "+ (LOQ ≤ + <5%)"}, {"smiles": "Cc1ccc2c(c1)[C@@H]([C@@H]1CCCN1)OCC2", "note": "[Compound I-26, (S)-2-((S)-7-methylisochroman-1-yl)pyrrolidine]", "AD: ADHD (probability that behavioral signature matches class)": "+ (LOQ ≤ + <5%)", "AG: analgesic (probability that behavioral signature matches class)": "+ (LOQ ≤ + <5%)", "AX: anxiolytic (probability that behavioral signature matches class)": "++ (5% ≤ ++ <25%)", "CE: cognitive enhancer (probability that behavioral signature matches class)": "+ (LOQ ≤ + <5%)", "DP: anti-depressant (probability that behavioral signature matches class)": "+ (LOQ ≤ + <5%)", "HA: hallucinogen (probability that behavioral signature matches class)": "+ (LOQ ≤ + <5%)", "MS: mood stabilizer (probability that behavioral signature matches class)": "+ (LOQ ≤ + <5%)", "PS: anti-psychotic (probability that behavioral signature matches class)": "+ (LOQ ≤ + <5%)", "SD: sedative hypnotic (probability that behavioral signature matches class)": "+ (LOQ ≤ + <5%)", "UN: uncharacterized CNS activity (probability that behavioral signature matches class)": "+ (LOQ ≤ + <5%)", "XG: anxiogenic (probability that behavioral signature matches class)": "+ (LOQ ≤ + <5%)"}, {"smiles": "c1cc2c(c3c1CCO[C@@H]3[C@@H]1CCCN1)OCO2", "note": "[Compound I-51, (S)-2-((S)-7,9-dihydro-6H-[1,3]dioxolo[4,5-h]isochromen-9-yl)pyrrolidine]", "AD: ADHD (probability that behavioral signature matches class)": "+ (LOQ ≤ + <5%)", "AG: analgesic (probability that behavioral signature matches class)": "++ (5% ≤ ++ <25%)", "AX: anxiolytic (probability that behavioral signature matches class)": "++ (5% ≤ ++ <25%)", "CE: cognitive enhancer (probability that behavioral signature matches class)": "+ (LOQ ≤ + <5%)", "DP: anti-depressant (probability that behavioral signature matches class)": "+ (LOQ ≤ + <5%)", "HA: hallucinogen (probability that behavioral signature matches class)": "+ (LOQ ≤ + <5%)", "MS: mood stabilizer (probability that behavioral signature matches class)": "+ (LOQ ≤ + <5%)", "PS: anti-psychotic (probability that behavioral signature matches class)": "+ (LOQ ≤ + <5%)", "SD: sedative hypnotic (probability that behavioral signature matches class)": "+ (LOQ ≤ + <5%)", "UN: uncharacterized CNS activity (probability that behavioral signature matches class)": "++ (5% ≤ ++ <25%)", "XG: anxiogenic (probability that behavioral signature matches class)": "+ (LOQ ≤ + <5%)"}, {"smiles": "Fc1ccc2c(c1)[C@H]([C@H]1CCCN1)OCC2", "note": "[Compound I-7, (R)-2-((R)-7-fluoroisochroman-1-yl)pyrrolidine]", "AD: ADHD (probability that behavioral signature matches class)": "+ (LOQ ≤ + <5%)", "AG: analgesic (probability that behavioral signature matches class)": "++ (5% ≤ ++ <25%)", "AX: anxiolytic (probability that behavioral signature matches class)": "++ (5% ≤ ++ <25%)", "CE: cognitive enhancer (probability that behavioral signature matches class)": "++ (5% ≤ ++ <25%)", "DP: anti-depressant (probability that behavioral signature matches class)": "++ (5% ≤ ++ <25%)", "HA: hallucinogen (probability that behavioral signature matches class)": "+ (LOQ ≤ + <5%)", "MS: mood stabilizer (probability that behavioral signature matches class)": "+ (LOQ ≤ + <5%)", "PS: anti-psychotic (probability that behavioral signature matches class)": "++ (5% ≤ ++ <25%)", "SD: sedative hypnotic (probability that behavioral signature matches class)": "+ (LOQ ≤ + <5%)", "UN: uncharacterized CNS activity (probability that behavioral signature matches class)": "+++ (25% ≤ +++ <50%)", "XG: anxiogenic (probability that behavioral signature matches class)": "+ (LOQ ≤ + <5%)"}, {"smiles": "c1ccc2c(c1)CCO[C@@H]2[C@H]1CCCN1", "note": "[Compound I-20, (R)-2-((S)-isochroman-1-yl)pyrrolidine]", "AD: ADHD (probability that behavioral signature matches class)": "+ (LOQ ≤ + <5%)", "AG: analgesic (probability that behavioral signature matches class)": "++ (5% ≤ ++ <25%)", "AX: anxiolytic (probability that behavioral signature matches class)": "++ (5% ≤ ++ <25%)", "CE: cognitive enhancer (probability that behavioral signature matches class)": "++ (5% ≤ ++ <25%)", "DP: anti-depressant (probability that behavioral signature matches class)": "++ (5% ≤ ++ <25%)", "HA: hallucinogen (probability that behavioral signature matches class)": "+ (LOQ ≤ + <5%)", "MS: mood stabilizer (probability that behavioral signature matches class)": "++ (5% ≤ ++ <25%)", "PS: anti-psychotic (probability that behavioral signature matches class)": "++++ (50% ≤ ++++)", "SD: sedative hypnotic (probability that behavioral signature matches class)": "++ (5% ≤ ++ <25%)", "UN: uncharacterized CNS activity (probability that behavioral signature matches class)": "+++ (25% ≤ +++ <50%)", "XG: anxiogenic (probability that behavioral signature matches class)": "+ (LOQ ≤ + <5%)"}, {"smiles": "Fc1ccc2c(c1)CCCO[C@@H]2[C@@H]1CCCN1", "note": "[Compound I-110, (S)-2-((S)-7-fluoro-1,3,4,5-tetrahydrobenzo[c]oxepin-1-yl)pyrrolidine]", "AD: ADHD (probability that behavioral signature matches class)": "+ (LOQ ≤ + <5%)", "AG: analgesic (probability that behavioral signature matches class)": "++ (5% ≤ ++ <25%)", "AX: anxiolytic (probability that behavioral signature matches class)": "++ (5% ≤ ++ <25%)", "CE: cognitive enhancer (probability that behavioral signature matches class)": "++ (5% ≤ ++ <25%)", "DP: anti-depressant (probability that behavioral signature matches class)": "++ (5% ≤ ++ <25%)", "HA: hallucinogen (probability that behavioral signature matches class)": "+ (LOQ ≤ + <5%)", "MS: mood stabilizer (probability that behavioral signature matches class)": "+ (LOQ ≤ + <5%)", "PS: anti-psychotic (probability that behavioral signature matches class)": "++++ (50% ≤ ++++)", "SD: sedative hypnotic (probability that behavioral signature matches class)": "++ (5% ≤ ++ <25%)", "UN: uncharacterized CNS activity (probability that behavioral signature matches class)": "+++ (25% ≤ +++ <50%)", "XG: anxiogenic (probability that behavioral signature matches class)": "+ (LOQ ≤ + <5%)"}, {"smiles": "Clc1ccc2c(c1)CCO[C@H]2[C@@H]1CCCN1", "note": "[Compound I-34, (S)-2-((R)-6-chloroisochroman-1-yl)pyrrolidine]", "AD: ADHD (probability that behavioral signature matches class)": "+ (LOQ ≤ + <5%)", "AG: analgesic (probability that behavioral signature matches class)": "++ (5% ≤ ++ <25%)", "AX: anxiolytic (probability that behavioral signature matches class)": "++ (5% ≤ ++ <25%)", "CE: cognitive enhancer (probability that behavioral signature matches class)": "++ (5% ≤ ++ <25%)", "DP: anti-depressant (probability that behavioral signature matches class)": "++ (5% ≤ ++ <25%)", "HA: hallucinogen (probability that behavioral signature matches class)": "+ (LOQ ≤ + <5%)", "MS: mood stabilizer (probability that behavioral signature matches class)": "+ (LOQ ≤ + <5%)", "PS: anti-psychotic (probability that behavioral signature matches class)": "++ (5% ≤ ++ <25%)", "SD: sedative hypnotic (probability that behavioral signature matches class)": "++ (5% ≤ ++ <25%)", "UN: uncharacterized CNS activity (probability that behavioral signature matches class)": "+++ (25% ≤ +++ <50%)", "XG: anxiogenic (probability that behavioral signature matches class)": "+ (LOQ ≤ + <5%)"}, {"smiles": "Fc1ccc2c(c1)[C@@H]([C@H]1CCN1)OCC2", "note": "[Compound I-88, (R)-2-((S)-7-fluoroisochroman-1-yl)azetidine]", "AD: ADHD (probability that behavioral signature matches class)": "+ (LOQ ≤ + <5%)", "AG: analgesic (probability that behavioral signature matches class)": "++ (5% ≤ ++ <25%)", "AX: anxiolytic (probability that behavioral signature matches class)": "+++ (25% ≤ +++ <50%)", "CE: cognitive enhancer (probability that behavioral signature matches class)": "++ (5% ≤ ++ <25%)", "DP: anti-depressant (probability that behavioral signature matches class)": "++ (5% ≤ ++ <25%)", "HA: hallucinogen (probability that behavioral signature matches class)": "+ (LOQ ≤ + <5%)", "MS: mood stabilizer (probability that behavioral signature matches class)": "+ (LOQ ≤ + <5%)", "PS: anti-psychotic (probability that behavioral signature matches class)": "++ (5% ≤ ++ <25%)", "SD: sedative hypnotic (probability that behavioral signature matches class)": "+ (LOQ ≤ + <5%)", "UN: uncharacterized CNS activity (probability that behavioral signature matches class)": "+++ (25% ≤ +++ <50%)", "XG: anxiogenic (probability that behavioral signature matches class)": "+ (LOQ ≤ + <5%)"}]}]}
